Reference: PubChem BioAssay AID1963981 (Molecular Pharmacology Branch, DTP, NCI, 2024)

Test system: 354836-022-R-J1-PDC multicell spheroid viability
Test: Anticancer human tumor 354836-022-R-J1-PDC patient-derived head and neck squamous cell carcinoma cell line growth inhibition [PI3K]
Details: for IC50: curve of first compound; for viability, T/C: stronger effect = lower value
In short: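 Complex 3D spheroids (cancer cells + endothelial HUVEC + mesenchymal stem cells); drug pairs of targeted agent x inavolisib/alpelisib/duvelisib/copanlisib; half-log series from ~Cmax, max 10 microM if Cmax unknown; endpoint viability.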

[1] = second compound 0.00316 µM, first compound 0.0316 µM
[2] = second compound 0.00316 µM, first compound 0.1 µM
[3] = second compound 0.00316 µM, first compound 0.316 µM
[4] = second compound 0.00316 µM, first compound 1 µM
[5] = second compound 0.00316 µM, first compound 3.16 µM
[6] = second compound 0.00316 µM, first compound 10 µM
[7] = second compound 0.01 µM, first compound 0.0316 µM
[8] = second compound 0.01 µM, first compound 0.1 µM
[9] = second compound 0.01 µM, first compound 0.316 µM
[10] = second compound 0.01 µM, first compound 1 µM
[11] = second compound 0.01 µM, first compound 3.16 µM
[12] = second compound 0.01 µM, first compound 10 µM
[13] = second compound 0.0316 µM, first compound 0.0316 µM
[14] = second compound 0.0316 µM, first compound 0.1 µM
[15] = second compound 0.0316 µM, first compound 0.316 µM
[16] = second compound 0.0316 µM, first compound 1 µM
[17] = second compound 0.0316 µM, first compound 3.16 µM
[18] = second compound 0.0316 µM, first compound 10 µM
[19] = second compound 0.1 µM, first compound 0.0316 µM
[20] = second compound 0.1 µM, first compound 0.1 µM
[21] = second compound 0.1 µM, first compound 0.316 µM
[22] = second compound 0.1 µM, first compound 1 µM
[23] = second compound 0.1 µM, first compound 3.16 µM
[24] = second compound 0.1 µM, first compound 10 µM
[25] = second compound 0.316 µM, first compound 0.0316 µM
[26] = second compound 0.316 µM, first compound 0.1 µM
[27] = second compound 0.316 µM, first compound 0.316 µM
[28] = second compound 0.316 µM, first compound 1 µM
[29] = second compound 0.316 µM, first compound 3.16 µM
[30] = second compound 0.316 µM, first compound 10 µM
[31] = second compound 1 µM, first compound 0.0316 µM
[32] = second compound 1 µM, first compound 0.1 µM
[33] = second compound 1 µM, first compound 0.316 µM
[34] = second compound 1 µM, first compound 1 µM
[35] = second compound 1 µM, first compound 3.16 µM
[36] = second compound 1 µM, first compound 10 µM
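Also: spheroids exposed to agents for seven days before the viability read.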

CC(Cn1ccc(-c2ccc(C#N)c(Cl)c2)n1)NC(=O)c1cc(C(C)O)[nH]n1 (stereo not given) + CC(Nc1ccc2c(c1)OCCn1cc(N3C(=O)OCC3C(F)F)nc1-2)C(N)=O
IC50 (second compound 0.00316 µM): > 10 µM
IC50 (second compound 0.01 µM): > 10 µM
IC50 (second compound 0.0316 µM): > 10 µM
IC50 (second compound 0.1 µM): > 10 µM
IC50 (second compound 0.316 µM): > 10 µM
IC50 (second compound 1 µM): 8.45 µM
viability, T/C [1]: 99.4%
viability, T/C [2]: 88.8%
viability, T/C [3]: 96.7%
viability, T/C [4]: 86.8%
viability, T/C [5]: 94.3%
viability, T/C [6]: 73.8%
viability, T/C [7]: 95.9%
viability, T/C [8]: 103%
viability, T/C [9]: 99.6%
viability, T/C [10]: 81.8%
viability, T/C [11]: 88.3%
viability, T/C [12]: 74.8%
viability, T/C [13]: 78.9%
viability, T/C [14]: 87.6%
viability, T/C [15]: 92.5%
viability, T/C [16]: 97.4%
viability, T/C [17]: 91.1%
viability, T/C [18]: 81.8%
viability, T/C [19]: 77.2%
viability, T/C [20]: 91.9%
viability, T/C [21]: 83.7%
viability, T/C [22]: 87.3%
viability, T/C [23]: 73.9%
viability, T/C [24]: 82.9%
viability, T/C [25]: 75.3%
viability, T/C [26]: 67.5%
viability, T/C [27]: 69.8%
viability, T/C [28]: 75.5%
viability, T/C [29]: 76.8%
viability, T/C [30]: 63.6%
viability, T/C [31]: 71.2%
viability, T/C [32]: 67.4%
viability, T/C [33]: 69.5%
viability, T/C [34]: 64.3%
viability, T/C [35]: 61.4%
viability, T/C [36]: 48%

CC1(C)CCC(Nc2ncc(C(F)(F)F)c(-c3c[nH]c4c(P(C)(C)=O)c(C#N)ccc34)n2)CN1 (stereo not given) + COc1c(OCCCN2CCOCC2)ccc2c3n(c(=NC(=O)c4cnc(N)nc4)nc12)CCN3
IC50 (second compound 0.00316 µM): < 0.0316 µM
IC50 (second compound 0.01 µM): < 0.0316 µM
IC50 (second compound 0.0316 µM): < 0.0316 µM
IC50 (second compound 0.1 µM): < 0.0316 µM
IC50 (second compound 0.316 µM): < 0.0316 µM
IC50 (second compound 1 µM): < 0.0316 µM
viability, T/C [1]: 12.1%
viability, T/C [2]: 11.7%
viability, T/C [3]: 11.3%
viability, T/C [4]: 12.8%
viability, T/C [5]: 15.3%
viability, T/C [6]: 3.31%
viability, T/C [7]: 13.1%
viability, T/C [8]: 12.1%
viability, T/C [9]: 13%
viability, T/C [10]: 12.4%
viability, T/C [11]: 15.3%
viability, T/C [12]: 1.45%
viability, T/C [13]: 9.55%
viability, T/C [14]: 11.7%
viability, T/C [15]: 11.4%
viability, T/C [16]: 14.8%
viability, T/C [17]: 13.4%
viability, T/C [18]: 1.98%
viability, T/C [19]: 9.95%
viability, T/C [20]: 8.41%
viability, T/C [21]: 9.5%
viability, T/C [22]: 9.61%
viability, T/C [23]: 8.75%
viability, T/C [24]: 0.91%
viability, T/C [25]: 3.76%
viability, T/C [26]: 3.49%
viability, T/C [27]: 5.12%
viability, T/C [28]: 4.26%
viability, T/C [29]: 4.19%
viability, T/C [30]: 0.4%
viability, T/C [31]: 1.25%
viability, T/C [32]: 1.35%
viability, T/C [33]: 1.58%
viability, T/C [34]: 1.61%
viability, T/C [35]: 1.3%
viability, T/C [36]: 0.43%

C=CC(=O)N1CCN(c2nc(=O)n(-c3c(C)ccnc3C(C)C)c3nc(-c4c(O)cccc4F)c(F)cc23)C(C)C1 (stereo not given) + COc1c(OCCCN2CCOCC2)ccc2c3n(c(=NC(=O)c4cnc(N)nc4)nc12)CCN3
IC50 (second compound 0.00316 µM): > 10 µM
IC50 (second compound 0.01 µM): > 10 µM
IC50 (second compound 0.0316 µM): > 10 µM
IC50 (second compound 0.1 µM): > 10 µM
IC50 (second compound 0.316 µM): < 0.0316 µM
IC50 (second compound 1 µM): < 0.0316 µM
viability, T/C [1]: 96.3%
viability, T/C [2]: 106%
viability, T/C [3]: 109%
viability, T/C [4]: 108%
viability, T/C [5]: 118%
viability, T/C [6]: 116%
viability, T/C [7]: 97.7%
viability, T/C [8]: 99%
viability, T/C [9]: 98.5%
viability, T/C [10]: 102%
viability, T/C [11]: 105%
viability, T/C [12]: 90.4%
viability, T/C [13]: 83.2%
viability, T/C [14]: 83.5%
viability, T/C [15]: 72%
viability, T/C [16]: 82.6%
viability, T/C [17]: 110%
viability, T/C [18]: 95.4%
viability, T/C [19]: 61.4%
viability, T/C [20]: 45.3%
viability, T/C [21]: 59.2%
viability, T/C [22]: 62.8%
viability, T/C [23]: 61.5%
viability, T/C [24]: 55.6%
viability, T/C [25]: 14.3%
viability, T/C [26]: 16.2%
viability, T/C [27]: 16.2%
viability, T/C [28]: 18.4%
viability, T/C [29]: 25.9%
viability, T/C [30]: 13%
viability, T/C [31]: 1.79%
viability, T/C [32]: 1.75%
viability, T/C [33]: 1.72%
viability, T/C [34]: 2.49%
viability, T/C [35]: 1.82%
viability, T/C [36]: 1.3%

CC(Cn1ccc(-c2ccc(C#N)c(Cl)c2)n1)NC(=O)c1cc(C(C)O)[nH]n1 (stereo not given) + CC(Nc1ncnc2nc[nH]c12)c1cc2cccc(Cl)c2c(=O)n1-c1ccccc1
IC50 (second compound 0.0316 µM): > 10 µM
IC50 (second compound 0.1 µM): > 10 µM
IC50 (second compound 0.316 µM): > 10 µM
IC50 (second compound 1 µM): > 10 µM
IC50 (second compound 3.16 µM): > 10 µM
IC50 (second compound 10 µM): > 10 µM
viability, T/C [13]: 99.3%
viability, T/C [14]: 91.8%
viability, T/C [15]: 96.6%
viability, T/C [16]: 112%
viability, T/C [17]: 97.7%
viability, T/C [18]: 84.4%
viability, T/C [19]: 87.8%
viability, T/C [20]: 102%
viability, T/C [21]: 89.6%
viability, T/C [22]: 104%
viability, T/C [23]: 85%
viability, T/C [24]: 93.3%
viability, T/C [25]: 91.2%
viability, T/C [26]: 90.6%
viability, T/C [27]: 97.6%
viability, T/C [28]: 87.9%
viability, T/C [29]: 101%
viability, T/C [30]: 89.1%
viability, T/C [31]: 106%
viability, T/C [32]: 91.4%
viability, T/C [33]: 93.1%
viability, T/C [34]: 108%
viability, T/C [35]: 83.5%
viability, T/C [36]: 78.8%
viability, T/C (second compound 3.16 µM, first compound 0.0316 µM): 113%
viability, T/C (second compound 3.16 µM, first compound 0.1 µM): 96.8%
viability, T/C (second compound 3.16 µM, first compound 0.316 µM): 95%
viability, T/C (second compound 3.16 µM, first compound 1 µM): 97.2%
viability, T/C (second compound 3.16 µM, first compound 3.16 µM): 90.7%
viability, T/C (second compound 3.16 µM, first compound 10 µM): 83.7%
viability, T/C (second compound 10 µM, first compound 0.0316 µM): 96.5%
viability, T/C (second compound 10 µM, first compound 0.1 µM): 93.2%
viability, T/C (second compound 10 µM, first compound 0.316 µM): 83.8%
viability, T/C (second compound 10 µM, first compound 1 µM): 96.9%
viability, T/C (second compound 10 µM, first compound 3.16 µM): 95.2%
viability, T/C (second compound 10 µM, first compound 10 µM): 75.7%

CCCS(=O)(=O)Nc1ccc(F)c(C(=O)c2c[nH]c3ncc(-c4ccc(Cl)cc4)cc23)c1F + COc1c(OCCCN2CCOCC2)ccc2c3n(c(=NC(=O)c4cnc(N)nc4)nc12)CCN3
IC50 (second compound 0.00316 µM): 5.87 µM
IC50 (second compound 0.01 µM): 5.89 µM
IC50 (second compound 0.0316 µM): 4.28 µM
IC50 (second compound 0.1 µM): < 0.0316 µM
IC50 (second compound 0.316 µM): < 0.0316 µM
IC50 (second compound 1 µM): < 0.0316 µM
viability, T/C [1]: 99.6%
viability, T/C [2]: 96%
viability, T/C [3]: 97.8%
viability, T/C [4]: 108%
viability, T/C [5]: 86.4%
viability, T/C [6]: 18.6%
viability, T/C [7]: 85.1%
viability, T/C [8]: 93.7%
viability, T/C [9]: 93.7%
viability, T/C [10]: 91.4%
viability, T/C [11]: 86.4%
viability, T/C [12]: 19.1%
viability, T/C [13]: 72.8%
viability, T/C [14]: 86.7%
viability, T/C [15]: 86.3%
viability, T/C [16]: 78.6%
viability, T/C [17]: 64%
viability, T/C [18]: 11.1%
viability, T/C [19]: 48.2%
viability, T/C [20]: 43.8%
viability, T/C [21]: 47.1%
viability, T/C [22]: 56.4%
viability, T/C [23]: 40.7%
viability, T/C [24]: 7.62%
viability, T/C [25]: 12.5%
viability, T/C [26]: 13.2%
viability, T/C [27]: 12.3%
viability, T/C [28]: 13.6%
viability, T/C [29]: 12.4%
viability, T/C [30]: 1.45%
viability, T/C [31]: 1.35%
viability, T/C [32]: 1.58%
viability, T/C [33]: 2.26%
viability, T/C [34]: 1.47%
viability, T/C [35]: 1.69%
viability, T/C [36]: 0.99%
